# Measured values published in patent publication US8394356B2, “Diagnostic imaging contrast agents with extended blood retention” (Lantheus Medical Imaging, Inc., priority 1995, dated 2013).
# Marks after values point to notes of the source that are not given here.
# Legend:
# [1] = target: T1, HSA (Homo sapiens, UniProt P02768); assay: HSA binding by equilibrium dialysis or ultrafiltration, 4.5% weight/volume HSA, pH 7.4 buffer
# Source text: (§1) In this application, the measurement of percent binding of the contrast agent to HSA has an error of approximately ±5%.
# [2] = Rat plasma pharmacokinetic experiment (Gd153 radiolabeled complexes, tail vein injection)
# Procedure: In this application, blood half-life data, as measured by AUC-conc., represents experimentation in rats.
# (§2) Rats were injected intravenously (tail vein) with 0.1 mmol/kg of the Gd^153 radiolabeled complexes. Plasma concentrations were determined over 30 minutes and fit to a standard bi-exponential two-compartment model. […] In addition, the 1/T1s of the plasma samples were recorded (at 20 MHZ, 37° C.) to assess the efficacy as MRI agents.
# [3] = target: T1, HSA
# Source text: as §1
# [4] = 1/T1 of rat plasma samples after intravenous injection (efficacy as MRI agents); type: in vivo; conditions: rats, 0.1 mmol/kg i.v., plasma 1/T1 at 20 MHZ, 37° C., first 10 minutes
# Procedure: as §2
# T1 sequence (P02768 25-609): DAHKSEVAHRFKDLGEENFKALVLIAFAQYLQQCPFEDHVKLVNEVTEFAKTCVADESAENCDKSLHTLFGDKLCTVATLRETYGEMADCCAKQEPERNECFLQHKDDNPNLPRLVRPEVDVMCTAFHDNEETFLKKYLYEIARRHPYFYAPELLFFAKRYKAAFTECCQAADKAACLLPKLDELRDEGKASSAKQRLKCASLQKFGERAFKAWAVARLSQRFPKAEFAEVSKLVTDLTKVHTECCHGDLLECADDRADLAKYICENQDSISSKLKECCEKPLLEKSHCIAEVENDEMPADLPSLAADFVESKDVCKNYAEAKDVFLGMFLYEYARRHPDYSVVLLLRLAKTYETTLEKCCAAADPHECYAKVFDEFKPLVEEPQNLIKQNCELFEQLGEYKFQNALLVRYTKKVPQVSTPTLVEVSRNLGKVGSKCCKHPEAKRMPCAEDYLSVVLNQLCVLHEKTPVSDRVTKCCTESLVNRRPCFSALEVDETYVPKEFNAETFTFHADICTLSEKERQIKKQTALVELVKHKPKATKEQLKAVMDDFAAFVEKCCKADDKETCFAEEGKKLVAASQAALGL
"fraction unbound ([1]; human, 4.5% weight/volume human serum albumin (HSA) solution)","AUC-conc. (for 0 to 10 minutes) greater than that of analogue ([2]; 0 to 10 minutes, versus analogue drawing 27) [%]",SMILES,"% bound to HSA ([1]; 4.5% HSA, error approx ±5%) [%]",binding to HSA (in words) [3],AUC-1/T1 [4] [s^−1 * min],"t1/2 ([2]; elimination half-life, rats, 0.1 mmol/kg i.v. tail vein, plasma over 30 min, bi-exponential two-compartment model) [min]",blood half-life ([2]; rats) [min],"AUC-conc ([2]; rats, 0.1 mmol/kg i.v., first 10 minutes, error approx ±10%) [mM·min]","AUC-conc. from 0 to 10 minutes ([2]; two rats, 0.1 mmol/kg tail vein, Gd153-labeled, calculated with KaleidaGraph) [mM·min]"
< 0.05,≥ 100,O=C(O)CN(CCN(CC(=O)O)CC(COP(=O)(O)OCCCCCCCCCCc1ccccc1)N(CC(=O)O)CC(=O)O)CC(=O)O (stereo not drawn),,,,,,,
,,"O=C([O-])CN(CCN(CC(=O)[O-])CC(=O)O)CCN(CC(=O)[O-])CC(=O)O.[Gd+3] [DTPA, gadolinium diethylenetriamine-pentaacetic acid]",0,little or no binding to HSA,27,15.0,15,3.5,3.5
